Assays:
[1] = test system: GADD45a-GFP reporter in TK6 human lymphoblastoid cell line; test: GreenScreen HC genotoxicity (GADD45a-GFP reporter); assay type: cell-based
Source text: GreenScreen HC is a mammalian cell-based assay for measuring the genotoxicity and cytotoxicity of chemical compounds and mixtures.
The term genotoxic is used to describe substances that are capable of causing damage to genetic material (DNA) within a cell, which may ultimately have mutagenic, carcinogenic or teratogenic effects in humans.
The GreenScreen assay reports genotoxic stress as an increase in fluorescence from a genetically modified derivative of the p53-competent TK6 human lymphoblastoid cell line. In the modified cells, regulatory DNA sequences which promote the transcription of the GADD45a gene control the expression of Green Fluorescent Protein (GFP). GADD45a has a central role in genomic integrity, and genotoxic stress induces its transcription. Exposure to a genotoxic compound therefore increases the expression of GFP, which is observed as an increase in fluorescence and which is monitored by fluorescent detection using a plate reader or flow cytometer. In the GreenScreen HC assay fluorescence is normalised to the optical absorbance measurement to correct for variation in cell yield caused by loss of cell viability or cytotoxicity. The statistically defined threshold for a positive result in the GreenScreen HC assay is 1.5, i.e., 50% induction over and above the baseline for the vehicle-treated control.
A dilution series of each test compound is generated in parallel in a 96-well, black microplate with an optically clear base. A standard genotoxic compound (methyl methanesulfonate, MMS) is added as an intra-plate quality control check. The plates are analysed at 24 hour and 48 hour time points using a microplate reader, which provides measurements of light absorbance and fluorescence for cells and solutions in the microplates wells.
In addition to measurements of cell viability and genotoxicity described above, the GreenScreen assay incorporates an assessment of the effects of metabolic activation in the assay, the “GreenScreen HC S9 assay”. To accomplish this, the cells are incubated both in the presence of and absence of the post-mitochondrial supernatant liver extract (known as “S9”). S9 is routinely used in genetic toxicology to supplement the test cells with mammalian phase I metabolism. To assess metabolic activation, compounds are incubated with the TK6 strain in the presence of 1% v/v S9 fraction mix for 3 hours with a subsequent 45 hour recovery time. After the recovery period, the GFP fluorescence signal and cell viability (assessed by propidium iodide uptake) are measured using a flow cytometer. Cyclophosphamide, a commonly used control in genotoxicity studies utilising metabolic activation, is used as the positive control in the assay. In the GreenScreen HC S9 assay, genotoxicity is evaluated by induction in GFP expression quantified using the mean sample fluorescence and cytotoxicity using the propidium iodide uptake assay described above. The statistically defined threshold for a positive genotoxicity result is 1.3, i.e. 30% induction over and above the baseline for the vehicle-treated control and the result is reported as positive or negative. Cytotoxic compounds are those that show an observed decrease in relative population survival below a significance threshold set at 90% compared to vehicle-treated control, at one or more test concentrations.
Stably transfected reporter cell lines were derived from the p53-competent human lymphoblastoid TK6 cell line. The reporter cell line carries an episomally replicating plasmid bearing the upstream promoter region and other regulatory sequences of the human GADD45a gene linked to a human optimised Green Fluorescent Protein (GFP) gene. The control cell line carries an identical plasmid except for the removal of 4 base pairs at the start of the EGFP gene, such that GFP is not produced. […]

[2] = test system: J774 macrophages; test: Resazurin Macrophage J774 Viability Assay; assay type: cell-based; details: Mus musculus, 6 point concentration range 10 μM to 10 nM, n = 3 replicates, mean of 2 independent experiments, 72 hour incubation, read-out: IC50 (1)
Method: Potency was assessed using a viability assay based on the survival of the J774 macrophage cell line. Macrophages are closely related to osteoclasts and have been used previously as a model system for osteoclast survival (see, e.g., Luckman et al., 1998, “Heterocycle-containing bisphosphonates cause apoptosis and inhibit bone resorption by preventing protein prenylation: evidence from structure-activity relationships in J774 macrophages,” J. Bone Miner. Res., Vol. 13, pp. 1668-1678). The model is indicative both of effects on bone protection in diseases such as osteoporosis, osteoarthritis and rheumatoid arthritis, and of effects on inflammation since, like osteoclasts, J774 macrophages are dependent for survival on continued NFκB activation.
In vitro potency of test compounds was determined by incubation with J774 macrophages and subsequent determination of cell viability using resazurin.
Resazurin is a redox dye commonly used as an indicator of viability in cultured cells (see, e.g., Anoopkumar-Dukie, 2005, British Journal of Radiology, Vol. 78, pp. 945-947). It is non-toxic to cells and stable in culture medium, allowing continuous measurement of cell proliferation in vitro as either a kinetic or endpoint assay. The assay is based on the ability of viable, metabolically-active cells to reduce resazurin (which is blue and non-fluorescent) to resorufin and dihydroresorufin (which are red and fluorescent) using electrons from reducing species, such as nicotinamide adenine dinucleotide (NADPH) and flavin adenine dinucleotide (FADH). This transformation, from oxidised form to reduced form, can be measured either colorimetrically or fluorometrically. Insults that impair cell viability and proliferation also affects the capacity of cells to reduce resazurin, and the rate of dye reduction is directly proportional to the number of viable cells present.
For fluorescence measurements, 530-560 nm excitation and 590 nm emission wavelengths are typically used. For colorimetric measurements, absorbance at 570 nm (reduced form) and 600 nm (oxidised form) is typically measured. A simple calculation is performed to determine the relative quantities of the two species: a high ratio of resorufin (the reduced form) to resazurin (the oxidised form) is an indicator that cells are proliferating and viable. A low ratio indicates cells that are quiescent or non-viable.
J774 cells were plated at 10^4 cells per well in 100 μL αMEM (α Modified Eagle Medium) in 96-well plates and allowed to adhere overnight. The following day, test compounds were prepared as 100 mM solutions in DMSO. These stock solutions were diluted in DMSO and then diluted 1000× in culture medium (αMEM) before being added directly to the wells so as to give the desired final compound concentration. After a 72 hour incubation at 37° C./5% CO2, resazurin (Alamar Blue, Biosource International) was added to each well (1:10 v/v, 10 μL). The plate was then incubated at 37° C. for 3 hours and fluorescence was measured at 590 nm, with a 25 nm bandwidth.
The average results for each test compound were expressed as a percent (%) of the average control value reflecting cell viability. The average values across the concentrations tested were then plotted and the IC50 for was calculated by fitting the data to a 4-parameter IC50 equation using software from Grafit (Erithacus Software). Each experiment was repeated twice and the data are presented as the mean IC50 from both experiments.

[3] = GreenScreen HC, positive or negative

## Cc1cc(S(=O)(=O)NC2CCC(C)(O)CC2)ccc1-c1ccc(F)cc1F (single isomer, unassigned) [REF001, reference compound]
[1]; [3]
  Genotoxicity: Positive
[2]
  IC50: 0.12 µM

## Cc1cc(S(=O)(=O)N[C@H]2CC[C@H](O)CC2)ccc1-c1ccc(F)cc1F [ABD735]
[1]; [3]
  Genotoxicity: Negative
[2]
  IC50: 0.1 µM

## O=S(=O)(N[C@H]1CC[C@H](O)CC1)c1ccc(-c2ncc(Cl)cc2Cl)cc1 [ABD836, reference compound]
[1]; [3]
  Genotoxicity: Positive
[2]
  IC50: 0.28 µM

## C[C@]1(O)CC[C@@H](NS(=O)(=O)c2ccc(-c3ccc(F)cc3F)cc2)CC1 [ABD899, reference compound]
[1]; lab scale batch, 1.3 mM to 0.3 pM
  Genotoxicity: Positive
[1]; mid scale batch, 164 μM to 0.003 μM
  Genotoxicity: Negative
[2]
  IC50: 0.08 µM

## C[C@]1(O)CC[C@H](NS(=O)(=O)c2ccc(-c3ccc(F)cc3F)cc2)CC1 [ABD900, reference compound]
[1]; [3]
  Genotoxicity: Negative
[2]
  IC50: 0.56 µM

## C[C@]1(O)CC[C@H](NS(=O)(=O)c2ccc(-c3ccc(Cl)cc3C#N)cc2)CC1 [HMC-C-01-A, 4′-Chloro-2′-cyano-N-((1r,4r)-4-hydroxy-4-methylcyclohexyl)biphenyl-4-sulfonamide]
[1]; [3]
  Genotoxicity: Negative
[2]
  IC50: 0.13 µM

## C[C@]1(O)CC[C@@H](NS(=O)(=O)c2ccc(-c3ccc(Cl)cc3C#N)cc2)CC1 [HMC-C-01-B, 4′-Chloro-2′-cyano-N-((1s,4s)-4-hydroxy-4-methylcyclohexyl)-[1,1′-biphenyl]-4-sulfonamide]
[1]; [3]
  Genotoxicity: Negative

## C[C@]1(O)CC[C@H](NS(=O)(=O)c2ccc(-c3ccc(F)cc3C(F)(F)F)cc2)CC1 [HMC-C-02-A, 4′-Fluoro-N-((1r,4r)-4-hydroxy-4-methylcyclohexyl)-2′-(trifluoromethyl)biphenyl-4-sulfonamide]
[1]; [3]
  Genotoxicity: Negative
[2]
  IC50: 0.26 µM

## C[C@]1(O)CC[C@H](NS(=O)(=O)c2ccc(-c3c(F)cc(F)cc3F)cc2)CC1 [HMC-C-03-A, 2′,4′,6′-Trifluoro-N-((1r,4r)-4-hydroxy-4-methylcyclohexyl)biphenyl-4-sulfonamide]
[1]; [3]
  Genotoxicity: Negative
[2]
  IC50: 0.14 µM

## C[C@]1(O)CC[C@@H](NS(=O)(=O)c2ccc(-c3c(F)cc(F)cc3F)cc2)CC1 [HMC-C-03-B, 2′,4′,6′-Trifluoro-N-((1s,4s)-4-hydroxy-4-methylcyclohexyl)-[1,1′-biphenyl]-4-sulfonamide]
[1]; [3]
  Genotoxicity: Positive

## C[C@]1(O)CC[C@H](NS(=O)(=O)c2ccc(-c3ncc(F)cc3F)c(F)c2)CC1 [HMC-N-01-A, 4-(3,5-Difluoropyridin-2-yl)-3-fluoro-N-((1r,4r)-4-hydroxy-4-methylcyclohexyl)benzenesulfonamide]
[1]; [3]
  Genotoxicity: Negative
[2]
  IC50: 0.13 µM

## C[C@]1(O)CC[C@@H](NS(=O)(=O)c2ccc(-c3ncc(F)cc3F)c(F)c2)CC1 [HMC-N-01-B, 4-(3,5-Difluoropyridin-2-yl)-3-fluoro-N-((1s,4s)-4-hydroxy-4-methylcyclohexyl)benzenesulfonamide]
[1]; [3]
  Genotoxicity: Negative

## C[C@]1(O)CC[C@H](NS(=O)(=O)c2ccc(-c3ncc(F)cc3F)cc2)CC1 [HMC-N-02-A, 4-(3,5-Difluoropyridin-2-yl)-N-((1r,4r)-4-hydroxy-4-methylcyclohexyl)benzenesulfonamide]
[1]; [3]
  Genotoxicity: Negative
[2]
  IC50: 0.18 µM

## C[C@]1(O)CC[C@@H](NS(=O)(=O)c2ccc(-c3ncc(F)cc3F)cc2)CC1 [HMC-N-02-B, 4-(3,5-Difluoropyridin-2-yl)-N-((1s,4s)-4-hydroxy-4-methylcyclohexyl)benzenesulfonamide]
[1]; [3]
  Genotoxicity: Negative

## C[C@]1(O)CC[C@H](NS(=O)(=O)c2ccc(-c3ncc(Cl)cc3Cl)cc2)CC1 [HMC-N-03-A, 4-(3,5-Dichloropyridin-2-yl)-N-((1r,4r)-4-hydroxy-4-methylcyclohexyl)benzenesulfonamide]
[1]; [3]
  Genotoxicity: Negative
[2]
  IC50: 0.17 µM

## C[C@]1(O)CC[C@H](NS(=O)(=O)c2ccc(-c3ncc(Cl)cc3Cl)c(F)c2)CC1 [HMC-N-04-A, 4-(3,5-Dichloropyridin-2-yl)-3-fluoro-N-((1r,4r)-4-hydroxy-4-methylcyclohexyl)benzenesulfonamide]
[1]; [3]
  Genotoxicity: Negative
[2]
  IC50: 0.18 µM

Reference: patent US9624167B2, “N-(4-hydroxy-4-methyl-cyclohexyl)-4-phenyl-benzenesulfonamides and N-(4-hydroxy-4-methyl-cyclohexyl)-4-(2-pyridyl)benzenesulfonamides and their therapeutic use” (PIMCO 2664 LIMITED, priority 2013, dated 2017)
